Reference: patent US20150192589A1, “METHOD USING FLUORESCENT TURN-ON PROBES FOR CELL-SPECIFIC DETECTION” (Agency for Science, Technology and Research, priority 2014, published 2015)
Each block holds one compound with its values, some of them ahead of it.

Key:
β-galactosidase = experiment: Hydrolysis of probe by β-galactosidase (fluorescence turn-on); format: biochemical; settings: KH2PO4 buffer pH 4.5, 30° C., excitation 365 nm, emission 542 nm
Protocol: Excited at 365 nm. Fluorescence intensity was measured at 542 nm.
After reaction of the probe with β-galactosidase, compound 9 is obtained.

mitochondria = experiment: Mitochondria imaging; format: cell-based
Protocol: FIGS. 30A-30C show Colocalization imaging of Hela cells stained with 5.0 μM MitoGreen-2 and 50 nM MitoTracker®-red.
MitoGreen-1 and MitoGreen-2 can be easily modified by adding further reactive groups to detect certain enzymes or bioactive molecules.

[1] = Photostability by continuous confocal scanning of stained cells; format: physicochemical; settings: approximately 8 min continuous confocal scanning, stained MCF-7 cells; Lyso-1 1 μM, LysoTracker Red 50 nM
Protocol: FIGS. 10A-10E show (FIG. 10E) Signal loss (%) of fluorescent emission of Lyso-1 (1 μM) and LysoTracker® Red (50 nM) with increasing time. Excitation wavelength: 405 nm (for Lyso-1) and 560 nm (for LysoTracker® Red); emission filter: 515-560 nm (for Lyso-1) and 581-688 nm (for LysoTracker® Red); (FIGS. 10A-10D) fluorescent images of living MCF-7 cells stained with Lyso-1(1 μM) and LysoTracker® Red (50 nM) at 0 and 5 min.
It has been shown that the signal loss of Lyso-1 is less than 20% in approximately 8 min. In contrast, LysoTracker® Red lost almost approximately 70% of its fluorescence signal.
For Photostability study, MCF-7 cells were stained with 1.0 μM Lyso-1 and LysoTracker® Red for 1 h at 37° C. under 5% CO2. The changes of fluorescence intensity with scan time were determined by CLSM (Zeiss LSM 410, Jena, Germany).
Excitation wavelength: 405 nm (for Lyso-1, 1% laser power) and 560 nm (for LysoTracker® Red, 18% laser power); emission filter: 515-560 nm (for Lyso-1) and 581-688 nm (for LysoTracker® Red). The data were obtained from replicate experiments (n=3).

lysosomes of MCF-7 cells = experiment: In situ imaging of lysosomal esterase / colocalization with LysoTracker Red; format: cell-based
Protocol: FIGS. 9A-9H show the colocalization imaging of MCF-7 cells stained with 1.0 μM Lyso-1 and 50 nM LysoTracker®-red for 30 min at 37° C. (FIG. 9A and FIG. 9E) Bright-field image. (FIG. 9B and FIG. 9F) Confocal image from Lyso-1 on channel 1 (λex=405 nm, λem=515-560 nm). (FIG. 9C and FIG. 9G) Confocal image from LysoTracker® Red on channel 2 (λex=559 nm, λem=585-610 nm). (FIG. 9D and FIG. 9H) Merged image of channels 1 and 2. Scale bar=20 μm.
A discrete labeling pattern that matched the distribution of lysosomes was obtained using Lyso-1 (FIG. 9a-d). […] To verify that the probes can selectively target lysosomes, the probe 6 without of lysosome targeting morpholines was also tested for cell imaging as a comparison. […] These experiments clearly verified that Lyso-1 can selectively target lysosome.
MCF-7 cells were seeded at a density of 2×10^4/well in the chamber (LAB-TEK, Chambered Coverglass System) and grown for 18 h at 37° C. in a humidified 5% CO2 incubator. The cells were washed twice with 1×PBS buffer and 0.3 mL fresh serum-free medium containing 1.0 μM Lyso-1 solution was then added to the chamber.
For co-staining between Lyso-1 and LysoTracker® Red, the MCF-7 cells were first incubated with 1.0 μM Lyso-1 solution for 2 h, and then the cells were rinsed and incubated in the medium containing 100 nM Lyso-tracker Red for 1 h.
Lyso-1 was excited at 405 nm (1% laser power) and the fluorescence was collected at 515-560 nm; LysoTracker® Red was excited at 560 nm (18% laser power) and fluorescence was collected at 581-688 nm.

esterase [2] = experiment: Selectivity of Lyso-1 fluorescence response, esterase versus interference substances; format: biochemical; settings: Lyso-1 10 μM; esterase 0.50 U mL^−1 vs MgCl2, CaCl2, vitamin C, H2O2, BO3−, lysozyme, cathepsin B; PBS pH 7.4, 37° C.
esterase [3] = experiment: Fluorescence response of Lyso-1 upon incubation with esterase; format: biochemical
Protocol: The measurements were performed in 10 mM PBS (pH 7.4) with λex/em=356/532 nm.
For esterase at 0.50 U mL^−1, the fluorescence increase could reach a plateau in 15 min, which is sigmoidal in shape due to the two-stepwise sequential hydrolysis of Lyso-1 to 2. The fluorescence could only be fully generated after the two-step reaction completed and formation of intramolecular hydrogen bonds. […] The detection limit (3 S/m, in which S is the standard deviation of blank measurements, and m is the slope of the linear equation) is determined to be 2.4×10-3 U mL^−1.
(§1) The UV-vis absorption spectra were obtained using UV-vis spectrometer (Shimadzu, UV-1700, Japan). PL measurements were carried out on a Perkin-Elmer LS-55 equipped with a xenon lamp excitation source and a Hamamatsu (Japan) 928 PMT, using 90° angle detection for solution samples. The cells were imaged by fluorescence microscope (Nikon Al Confocal microscope). The time-dependence fluorescence scans of Lyso-1 were conducted with microplate reader (TECAN). ^1H and ^13C NMR spectra were measured on a Bruker ARX 400 NMR spectrometer. The molecular mass was acquired using ion trap-time-of-flight mass spectrometry (MS-IT-TOF) (Shimadzu).

[4] = system: MCF-7 breast cancer cells; experiment: Cell viability by MTT assay; format: cell-based; settings: 1, 2, 4, 8, or 16 μM for 24 h
Protocol: The samples were incubated with 1, 2, 4, 8, or 16 μM Lyso-1 for 24 h, and the cell viabilities are close to 100% under the testing conditions, indicative of low cytotoxicity of the probe.
MCF-7 cancer cells were seeded in 96-well plates at a density of 4×10^4 cells/mL. After 24 h incubation, the cells were exposed to a series of doses of the probe Lyso-1 at 37° C. After the designated time intervals, the sample wells were washed twice with 1×PBS buffer and freshly prepared MTT solution (0.5 mg/mL, 100 μL) in culture medium was added into each sample well. The MTT medium solution was carefully removed after 3 h incubation in the incubator for the sample wells, whereas the control wells without addition of MTT solution were washed twice with 1×PBS buffer. DMSO (100 μL) was then added into each well and the plate was gently shaken for 10 min at room temperature to dissolve all the precipitates formed. The absorbance of individual wells at 570 nm was then monitored by the microplate Reader. The absorbance of MTT in the sample well was determined by the differentiation between the absorbance of the sample well and that of the respective control well. Cell viability was expressed by the ratio of the absorbance of MTT in the sample wells to that of the cells incubated with culture medium only.

[5] = system: lysosomal esterase in MCF-7 cells; experiment: Real-time fluorescence imaging of lysosomal esterase activity; format: cell-based
Protocol: As the incubation time elapses, the fluorescence intensity increases quickly which reaches a maximum at 8 min. The real-time fluorescence images shown in FIG. 12 indicate that the probe is non-fluorescent in the cell culture media.
[…] The intensity images of Lyso-1 were recorded with the emission in the range of 515-560 nm. Excitation wavelength: 405 nm.

[6] = Photoluminescence / AIE properties in solvent-water mixtures; format: physicochemical
Text: At ˜532 nm, there is almost no fluorescence for Lyso-1, whereas a strong emission with a 200-fold enhancement is observed for 2 from the keto tautomer ([…]). The weak emission at a short wavelength (λmax=˜441 nm) is from the enol tautomer of 2 (FIG. 1). It is noted that there is almost no overlap between the absorption and emission spectrum for salicyladazine dye 2, which is highly desirable for imaging applications.
With gradual addition of water into THF from fw=0 to 80 vol %, the emission intensity keeps slow increasing. […] At fw=99 vol %, a 14-fold enhancement of emission has been observed as compared to that in THF, showing an obvious AIE effect.
as §1

esterase in MCF-7 cells = experiment: Esterase activity in living cells by Lyso-1 fluorescence imaging after inhibitor pretreatment; format: cell-based; settings: MCF-7 cells pretreated with 0.4 mM
Protocol: (§2) For example, the addition of 0.1 mM AEBSF causes a fluorescence decrease in 10% at 532 nm compared with that without AEBSF. The higher concentrations of AEBSF such as 0.4 and 1.0 mM lead to larger fluorescence decrease of 40% and 65%, respectively. […] Thus, the probe Lyso-1 has a use to screen inhibitors of esterase.

esterase [7] = experiment: Effect of esterase inhibitor on esterase activity (Lyso-1 fluorescence readout); format: biochemical; settings: Lyso-1 10 μM, esterase 0.50 U mL^−1
Protocol: as §2

Compound: OCC1O[C@@H](Oc2ccccc2/C=N/N=C/c2ccccc2OC2O[C@H](CO)[C@H](O)[C@H](O)[C@H]2O)C(O)C(O)C1O (stereo in doubt) [β-gal-1, (2S,3S,4R,5S,6S)-2-(hydroxymethyl)-6-(2-((E)-((E)-(2-(((2R,3R,4S,5R,6R)-3,4,5-trihydroxy-6-(hydroxymethyl)tetrahydro-2H-pyran-2-yl)oxy)benzylidene)hydrazono)methyl)phenoxy)tetrahydro-2H-pyran-3,4,5-triol]
fluorescence upon reaction with β-galactosidase (β-galactosidase): leads to fluorescence

binding to mitochondria (mitochondria): bind well to mitochondria
Compound: Oc1cc(OCCCCCC[P+](c2ccccc2)(c2ccccc2)c2ccccc2)ccc1/C=N/N=C/c1ccc(OCCCCCC[P+](c2ccccc2)(c2ccccc2)c2ccccc2)cc1O.[Br-].[Br-] [MitoGreen-1, (((((1E,1′E)-hydrazine-1,2-diylidenebis(methanylylidene))bis(3-hydroxy-4,1-phenylene))bis(oxy))bis(hexane-6,1-diyl))bis(triphenylphosphonium) bromide]

binding to mitochondria (mitochondria): bind well to mitochondria
Compound: Oc1cc(OCCCCCC[n+]2ccccc2)ccc1/C=N/N=C/c1ccc(OCCCCCC[n+]2ccccc2)cc1O.[Br-].[Br-] [MitoGreen-2, 1,1′-(((((1E,1′E)-hydrazine-1,2-diylidenebis(methanylylidene))bis(3-hydroxy-4,1-phenylene))bis(oxy))bis(hexane-6,1-diyl))bis(pyridin-1-ium) bromide]

Compound: CC(=O)Oc1cc(OCCCCN2CCOCC2)ccc1/C=N/N=C/c1ccc(OCCCCN2CCOCC2)cc1OC(C)=O [Lyso-1, ((1E,1′E)-hydrazine-1,2-diylidenebis(methanylylidene))bis(3-(4-morpholinobutoxy)-6,1-phenylene) diacetate]
signal loss of fluorescent emission [1]: less than 20%
overlap between fluorescence images of probe and LysoTracker Red (lysosomes of MCF-7 cells; MCF-7 cells, 1.0 μM probe, no washing): excellent overlap
fluorescence induced by esterase relative to interferences (times brighter) (esterase [2]): 70-200 times
fluorescence change without esterase (stability of the probe) (esterase [3]; control without esterase, same period of time, PBS pH 7.4): hardly changes
time for fluorescence increase to reach a plateau (esterase [3]; esterase 0.50 U mL^−1, Lyso-1 10 μM, 10 mM PBS pH 7.4): 15 min
cell viability [4]: ~100%
incubation time at which fluorescence intensity reaches a maximum ([5]; 1.0 μM, room temperature): 8 min

Compound: Oc1cc(OCCCCN2CCOCC2)ccc1/C=N/N=C/c1ccc(OCCCCN2CCOCC2)cc1O [compound 2, 6,6′-((1E,1′E)-hydrazine-1,2-diylidenebis(methanylylidene))-bis(3-(4-morpholinobutoxy)-phenol)]
quantum yield of keto tautomer emission (printed "0=") ([6]; 10 μM in DMSO/water (1:99 v/v), ~532 nm): 9.6%
emission enhancement at ~532 nm compared with Lyso-1 ([6]; 10 μM in DMSO/water (1:99 v/v), λex=356 nm, keto tautomer emission): 200 fold
enhancement of emission at fw=99 vol % compared to that in THF (AIE effect) ([6]; THF/water, 10 μM, excitation 356 nm): 14 fold

Compound: NCCc1ccc(S(=O)(=O)F)cc1 [AEBSF, 4-(2-aminoethyl)benzenesulfonyl fluoride]
Lyso-1 fluorescence in pretreated cells (esterase in MCF-7 cells): obviously decreased fluorescence
fluorescence decrease at 532 nm compared with that without AEBSF (esterase [7]; 0.1 mM AEBSF): 10%
fluorescence decrease at 532 nm compared with that without AEBSF (esterase [7]; 0.4 mM AEBSF): 40%
fluorescence decrease at 532 nm compared with that without AEBSF (esterase [7]; 1.0 mM AEBSF): 65%

signal loss of fluorescent emission [1]: approximately 70%
Compound: CN(C)CCNC(=O)CCc1ccc2n1[B-](F)(F)[N+]1=C(c3ccc[nH]3)C=CC1=C2 [LysoTracker® Red, reference compound]

Compound: CC(=O)Oc1cc(OCCCCBr)ccc1/C=N/N=C/c1ccc(OCCCCBr)cc1OC(C)=O [compound 6, ((1E,1′E)-hydrazine-1,2-diylidenebis(methanylylidene))bis(3-(4-bromobutoxy)-6,1-phenylene) diacetate]
fluorescence of cells (lysosomes of MCF-7 cells; MCF-7 cells incubated with 1.0 μM for 2 h): Very weak fluorescence
staining pattern of cells (lysosomes of MCF-7 cells; MCF-7 cells incubated with 5.0 μM): non-specific staining of the entire cell
time after which probe turns on in the entire cells ([5]; 5 μM): 2 h
